Data taken from the OligoGym collection.
Where “and” joins values, the source holds several entries; their conditions need not be identical. Identical values can stand only once. HELM strings list units from the 5' end as sugar, base in round brackets, then linkage (d deoxyribose, r ribose, m 2'-O-methyl, p phosphodiester). Strings are as the collection lists them, not checked against the first reports. ss, as = sense and antisense strand; [lna] = locked nucleic acid (LNA); [una] = unlocked nucleic acid; [hna] = hexitol nucleic acid; [s4r] = 4'-thioribose; [fl2r] = 2'-fluoro
Further: test system not given here.

Conditions: siRNA
With “RNA1{r(U)p.m(U)p.r(A)p.r(A)p.r(G)p.r(G)p.r(A)p.r(G)p.r(A)p.r(A)p.r(G)p.r(C)p.r(U)p.r(G)p.r(A)p.r(C)p.r(G)p.r(G)p.r(C)p.r(T)p.r(T)}|RNA2{r(G)p.r(C)p.r(C)p.r(G)p.r(U)p.r(C)p.r(A)p.r(G)p.r(C)p.r(U)p.r(U)p.r(C)p.r(U)p.r(C)p.r(C)p.r(U)p.m(U)p.r(A)p.r(A)p.r(T)p.r(T)}$$$RNA1{StrandType:ss}|RNA2{StrandType:as}$” the target mRNA knockdown was 69%.
Work on “RNA1{r(A)p.r(A)p.r(A)p.r(C)p.r(C)p.r(C)p.r(C)p.[fl2r](U)p.r(A)p.r(G)p.r(A)p.r(G)p.r(G)p.r(G)p.[fl2r](C)p.r(A)p.r(A)p.r(G)p.r(U)p.r(T)p.r(T)}|RNA2{r(A)p.r(C)p.r(U)p.r(U)p.r(G)p.r(C)p.r(C)p.r(C)p.r(U)p.r(C)p.r(U)p.r(A)p.r(G)p.r(G)p.r(G)p.r(G)p.r(U)p.r(U)p.r(U)p.r(T)p.r(T)}$$$RNA1{StrandType:ss}|RNA2{StrandType:as}$” yielded a target mRNA knockdown of 83%.
In the case of “RNA1{r(C)p.r(G)p.[s4r](U)p.r(A)p.r(C)p.r(G)p.r(C)p.r(G)p.r(G)p.r(A)p.r(A)p.[s4r](U)p.r(A)p.r(C)p.[s4r](U)p.[s4r](U)p.r(C)p.r(G)p.r(A)p.r(T)p.r(T)}|RNA2{r(U)p.r(C)p.r(G)p.r(A)p.r(A)p.r(G)p.r(U)p.r(A)p.r(U)p.r(U)p.r(C)p.r(C)p.r(G)p.r(C)p.r(G)p.r(U)p.r(A)p.r(C)p.r(G)p.r(T)p.r(T)}$$$RNA1{StrandType:ss}|RNA2{StrandType:as}$”, the target mRNA knockdown is reported as 96.3%.
In the case of “RNA1{r(G)p.[hna](A)p.r(C)p.r(G)p.r(U)p.r(A)p.r(A)p.[hna](A)p.r(C)p.r(G)p.r(G)p.r(C)p.r(C)p.[hna](A)p.r(C)p.r(A)p.[hna](A)p.r(G)p.r(U)p.r(U)p.r(C)}|RNA2{r(A)p.r(C)p.[lna](T)p.r(U)p.r(G)p.[lna](T)p.r(G)p.r(G)p.r(C)p.r(C)p.r(G)p.r(U)p.r(U)p.[lna](T)p.r(A)p.r(C)p.r(G)p.[lna](T)p.r(C)p.[lna](G)p.[lna](C)}$$$RNA1{StrandType:ss}|RNA2{StrandType:as}$”, the target mRNA knockdown is reported as 3.6%.
For “RNA1{r(C)p.r(G)p.r(U)p.r(A)p.r(C)p.r(G)p.r(C)p.r(G)p.r(G)p.r(A)p.r(A)p.r(U)p.r(A)p.r(C)p.r(U)p.r(U)p.r(C)p.r(G)p.r(A)p.r(T)p.r(T)}|RNA2{[s4r](U)p.[s4r](C)p.[s4r](G)p.[s4r](A)p.[s4r](A)p.[s4r](G)p.[s4r](U)p.[s4r](A)p.[s4r](U)p.[s4r](U)p.[s4r](C)p.[s4r](C)p.[s4r](G)p.[s4r](C)p.[s4r](G)p.[s4r](U)p.[s4r](A)p.[s4r](C)p.[s4r](G)p.r(T)p.r(T)}$$$RNA1{StrandType:ss}|RNA2{StrandType:as}$”, the target mRNA knockdown was 16.6%.
With “RNA1{r(A)p.r(G)p.r(U)p.m(U)p.r(A)p.r(A)p.r(C)p.r(C)p.r(C)p.r(G)p.r(G)p.r(G)p.r(A)p.r(C)p.r(U)p.m(U)p.r(G)p.r(G)p.r(A)p.r(T)p.r(T)}|RNA2{r(U)p.r(C)p.m(C)p.r(A)p.r(A)p.r(G)p.r(U)p.r(C)p.r(C)p.r(C)p.r(G)p.r(G)p.r(G)p.r(U)p.m(U)p.r(A)p.r(A)p.r(C)p.r(U)p.r(T)p.r(T)}$$$RNA1{StrandType:ss}|RNA2{StrandType:as}$” the target mRNA knockdown was 90%.
For “RNA1{r(C)p.r(U)p.r(U)p.r(A)p.r(C)p.r(G)p.r(C)p.r(U)p.r(G)p.r(A)p.r(G)p.r(U)p.r(A)p.r(C)p.r(U)p.r(U)p.r(C)p.r(G)p.r(A)p.d(T)p.d(T)}|RNA2{[lna](T)p.r(C)p.r(G)p.r(A)p.r(A)p.r(G)p.r(U)p.[lna](A)p.r(C)p.r(U)p.[lna](C)p.r(A)p.r(G)p.r(C)p.r(G)p.r(U)p.[lna](A)p.r(A)p.r(G)p.[lna](T)p.[lna](T)}$$$RNA1{StrandType:ss}|RNA2{StrandType:as}$”, the target mRNA knockdown was 15%.
With “RNA1{r(A)p.r(G)p.r(C)p.r(C)p.r(U)p.r(C)p.[fl2r](C)p.r(A)p.r(A)p.r(A)p.r(C)p.r(U)p.r(C)p.r(C)p.[fl2r](U)p.r(A)p.r(G)p.r(C)p.r(U)p.r(T)p.r(T)}|RNA2{r(A)p.r(G)p.r(C)p.r(U)p.r(A)p.r(G)p.r(G)p.r(A)p.r(G)p.r(U)p.r(U)p.r(U)p.r(G)p.r(G)p.r(A)p.r(G)p.r(G)p.r(C)p.r(U)p.r(T)p.r(T)}$$$RNA1{StrandType:ss}|RNA2{StrandType:as}$” the target mRNA knockdown was 32%.
In the case of “RNA1{m(A)p.r(A)p.m(G)p.r(G)p.m(A)p.r(A)p.m(C)p.r(G)p.m(G)p.r(G)p.m(G)p.r(A)p.m(C)p.r(A)p.m(C)p.r(U)p.m(U)p.r(A)p.m(C)p.r(T)p.r(T)}|RNA2{r(G)p.r(U)p.r(A)p.r(A)p.r(G)p.r(U)p.r(G)p.r(U)p.r(C)p.r(C)p.r(C)p.r(C)p.r(G)p.r(U)p.r(U)p.r(C)p.r(C)p.r(U)p.r(U)p.r(T)p.r(T)}$$$RNA1{StrandType:ss}|RNA2{StrandType:as}$”, the target mRNA knockdown is reported as 12%.
With “RNA1{m(U)p.r(U)p.m(A)p.r(C)p.m(A)p.r(A)p.m(A)p.r(G)p.m(G)p.r(A)p.m(U)p.r(C)p.m(U)p.r(C)p.m(C)p.r(U)p.m(C)p.r(C)p.m(C)p.r(T)p.r(T)}|RNA2{r(G)p.r(G)p.r(G)p.r(A)p.r(G)p.r(G)p.r(A)p.r(G)p.r(A)p.r(U)p.m(C)p.m(C)p.r(U)p.r(U)p.r(U)p.r(G)p.r(U)p.r(A)p.r(A)p.r(T)p.r(T)}$$$RNA1{StrandType:ss}|RNA2{StrandType:as}$” the target mRNA knockdown was 57%.
“RNA1{r(U)p.r(C)p.r(C)p.r(U)p.r(C)p.r(G)p.r(U)p.r(C)p.r(G)p.r(U)p.r(C)p.r(U)p.r(G)p.r(U)p.r(U)p.r(C)p.[fl2r](U)p.r(A)p.r(A)p.r(T)p.r(T)}|RNA2{r(U)p.[fl2r](U)p.r(A)p.r(G)p.r(A)p.r(A)p.[fl2r](C)p.r(A)p.r(G)p.r(A)p.r(C)p.r(G)p.r(A)p.r(C)p.r(G)p.r(A)p.r(G)p.r(G)p.r(A)p.r(T)p.r(T)}$$$RNA1{StrandType:ss}|RNA2{StrandType:as}$” showed a target mRNA knockdown of 74%.
Substance “RNA1{m(G)p.r(C)p.m(U)p.r(U)p.m(U)p.r(A)p.m(A)p.r(G)p.m(G)p.r(A)p.m(A)p.r(C)p.m(U)p.r(G)p.m(G)p.r(A)p.m(A)p.r(G)p.m(G)p.r(T)p.r(T)}|RNA2{r(C)p.r(C)p.r(U)p.r(U)p.r(C)p.r(C)p.r(A)p.m(G)p.r(U)p.r(U)p.r(C)p.r(C)p.r(U)p.r(U)p.r(A)p.r(A)p.r(A)p.m(G)p.r(C)p.r(T)p.r(T)}$$$RNA1{StrandType:ss}|RNA2{StrandType:as}$” has a target mRNA knockdown of 51%.
Work on “RNA1{r(A)p.r(A)p.r(C)p.r(C)p.m(C)p.r(A)p.r(A)p.r(A)p.r(G)p.r(G)p.r(G)p.m(G)p.r(A)p.r(G)p.r(U)p.m(U)p.r(G)p.r(C)p.r(U)p.r(T)p.r(T)}|RNA2{r(A)p.r(G)p.m(C)p.r(A)p.r(A)p.r(C)p.r(U)p.r(C)p.r(C)p.r(C)p.r(C)p.r(U)p.r(U)p.m(U)p.r(G)p.r(G)p.r(G)p.r(U)p.r(U)p.r(T)p.r(T)}$$$RNA1{StrandType:ss}|RNA2{StrandType:as}$” yielded a target mRNA knockdown of 92%.
“RNA1{r(G)p.r(A)p.m(U)p.r(A)p.r(G)p.r(G)p.r(A)p.r(A)p.r(G)p.r(G)p.r(G)p.m(G)p.r(C)p.r(U)p.r(U)p.m(C)p.r(A)p.r(G)p.r(C)p.r(T)p.r(T)}|RNA2{r(G)p.r(C)p.m(U)p.r(G)p.r(A)p.r(A)p.r(G)p.r(C)p.r(C)p.r(C)p.r(C)p.r(U)p.r(U)p.r(C)p.r(C)p.m(U)p.r(A)p.r(U)p.r(C)p.r(T)p.r(T)}$$$RNA1{StrandType:ss}|RNA2{StrandType:as}$” gave a target mRNA knockdown of 42%.
In the case of “RNA1{[fl2r](A)p.r(G)p.[fl2r](U)p.r(U)p.[fl2r](A)p.r(A)p.[fl2r](C)p.r(C)p.[fl2r](C)p.r(G)p.[fl2r](G)p.r(G)p.[fl2r](A)p.r(C)p.[fl2r](U)p.r(U)p.[fl2r](G)p.r(G)p.[fl2r](A)p.r(T)p.r(T)}|RNA2{r(U)p.r(C)p.r(C)p.r(A)p.r(A)p.r(G)p.r(U)p.r(C)p.r(C)p.r(C)p.r(G)p.r(G)p.r(G)p.r(U)p.r(U)p.r(A)p.r(A)p.r(C)p.r(U)p.r(T)p.r(T)}$$$RNA1{StrandType:ss}|RNA2{StrandType:as}$”, the target mRNA knockdown is reported as 65%.
In the case of “RNA1{r(G)p.r(G)p.r(G)p.r(G)p.r(C)p.r(U)p.r(C)p.r(U)p.r(U)p.r(C)p.m(U)p.r(A)p.r(C)p.r(A)p.m(U)p.r(U)p.r(C)p.r(C)p.r(C)p.r(T)p.r(T)}|RNA2{r(G)p.r(G)p.r(G)p.r(A)p.r(A)p.m(U)p.r(G)p.m(U)p.r(A)p.r(G)p.r(A)p.r(A)p.r(G)p.r(A)p.r(G)p.r(C)p.r(C)p.r(C)p.r(C)p.r(T)p.r(T)}$$$RNA1{StrandType:ss}|RNA2{StrandType:as}$”, the target mRNA knockdown is reported as 68%.
In the case of “RNA1{r(C)p.r(C)p.r(U)p.r(C)p.r(G)p.r(G)p.r(A)p.r(G)p.r(A)p.r(G)p.r(U)p.r(U)p.r(C)p.r(U)p.r(A)p.r(C)p.r(U)p.r(C)p.r(U)p.r(T)p.r(T)}|RNA2{r(A)p.r(G)p.r(A)p.r(G)p.m(U)p.r(A)p.r(G)p.r(A)p.r(A)p.r(C)p.r(U)p.r(C)p.r(U)p.r(C)p.r(C)p.r(G)p.r(A)p.r(G)p.r(G)p.r(T)p.r(T)}$$$RNA1{StrandType:ss}|RNA2{StrandType:as}$”, the target mRNA knockdown is reported as 85%.
In the case of “RNA1{[una](A)p.r(C)p.r(A)p.r(G)p.r(A)p.r(G)p.r(U)p.r(C)p.r(C)p.r(C)p.r(U)p.r(C)p.r(A)p.r(A)p.r(A)p.r(C)p.r(A)p.r(G)p.r(A)p.[una](U)p.[una](U)}|RNA2{r(U)p.r(C)p.r(U)p.r(G)p.r(U)p.r(U)p.r(U)p.r(G)p.r(A)p.r(G)p.r(G)p.r(G)p.r(A)p.r(C)p.r(U)p.r(C)p.r(U)p.r(G)p.r(U)p.[una](U)p.[una](U)}$$$RNA1{StrandType:ss}|RNA2{StrandType:as}$”, the target mRNA knockdown is reported as 94% and 92% and 91%.
In the case of “RNA1{r(G)p.r(A)p.r(C)p.r(G)p.r(U)p.r(A)p.r(A)p.r(A)p.r(C)p.r(G)p.r(G)p.r(C)p.r(C)p.r(A)p.r(C)p.r(A)p.r(A)p.r(G)p.r(U)p.[lna](T)p.[lna](C)}|RNA2{r(A)p.r(C)p.r(U)p.r(U)p.r(G)p.r(U)p.r(G)p.r(G)p.r(C)p.r(C)p.r(G)p.r(U)p.r(U)p.r(U)p.r(A)p.r(C)p.r(G)p.r(U)p.[lna](C)p.[lna](G)p.r(C)}$$$RNA1{StrandType:ss}|RNA2{StrandType:as}$”, the target mRNA knockdown is reported as 86.7%.
For “RNA1{r(G)p.r(G)p.r(G)p.r(G)p.r(C)p.r(U)p.r(C)p.r(U)p.r(U)p.r(C)p.r(U)p.m(A)p.r(C)p.r(A)p.r(U)p.r(U)p.r(C)p.r(C)p.r(C)p.r(T)p.r(T)}|RNA2{r(G)p.r(G)p.r(G)p.r(A)p.r(A)p.r(U)p.r(G)p.m(U)p.r(A)p.r(G)p.r(A)p.r(A)p.r(G)p.r(A)p.r(G)p.r(C)p.r(C)p.r(C)p.r(C)p.r(T)p.r(T)}$$$RNA1{StrandType:ss}|RNA2{StrandType:as}$”, the target mRNA knockdown was 72%.
